Test results taken from the kinase profiling compilation of Christmann-Franck et al. (2016).
Several values for one entry are separate records, joined by “and”; a condition that tells them apart may be missing. Identical values can stand only once.

How the values were obtained:
Assay in all cases: KINOMEscan competition binding
Conditions in all cases: compound 10.0 µM
[1] = molecular target: CHEK1 (human) (UniProt O14757)
[2] = molecular target: SGK3 (human) (UniProt Q96BR1)
[3] = molecular target: ALK (human) (UniProt Q9UM73)
[4] = molecular target: CDC42BPB (human) (UniProt Q9Y5S2)
[5] = molecular target: ROCK2 (human) (UniProt O75116)
[6] = molecular target: BLK (human) (UniProt P51451)
[7] = molecular target: CSNK2A2 (human) (UniProt P19784)
[8] = molecular target: PIK3CB (human) (UniProt P42338)
[9] = molecular target: PLK4 (human) (UniProt O00444)
[10] = molecular target: PRKX (human) (UniProt P51817)
[11] = molecular target: STK10 (human) (UniProt O94804)
[12] = molecular target: STK33 (human) (UniProt Q9BYT3)
[13] = molecular target: CDK5 (human) (UniProt Q00535)
Sequence of CDK5 (human) (Q00535 whole entry, looked up): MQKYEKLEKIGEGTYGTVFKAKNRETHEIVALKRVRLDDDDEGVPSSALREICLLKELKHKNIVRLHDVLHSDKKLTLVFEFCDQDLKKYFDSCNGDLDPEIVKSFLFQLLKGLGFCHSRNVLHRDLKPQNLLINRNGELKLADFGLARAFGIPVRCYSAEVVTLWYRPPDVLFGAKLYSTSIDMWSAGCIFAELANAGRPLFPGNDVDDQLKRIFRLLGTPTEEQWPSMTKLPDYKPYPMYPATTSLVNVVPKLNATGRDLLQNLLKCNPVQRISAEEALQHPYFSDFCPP

[14] = molecular target: PTK2 (human) (UniProt Q05397)
[15] = molecular target: MAPK12 (human) (UniProt P53778)
[16] = molecular target: EIF2AK2 (human) (UniProt P19525)
[17] = test system: EGFR (human), P00533 [752-759 del]
[18] = molecular target: TXK (human) (UniProt P42681)
Sequence of TXK (human) (P42681 whole entry, looked up): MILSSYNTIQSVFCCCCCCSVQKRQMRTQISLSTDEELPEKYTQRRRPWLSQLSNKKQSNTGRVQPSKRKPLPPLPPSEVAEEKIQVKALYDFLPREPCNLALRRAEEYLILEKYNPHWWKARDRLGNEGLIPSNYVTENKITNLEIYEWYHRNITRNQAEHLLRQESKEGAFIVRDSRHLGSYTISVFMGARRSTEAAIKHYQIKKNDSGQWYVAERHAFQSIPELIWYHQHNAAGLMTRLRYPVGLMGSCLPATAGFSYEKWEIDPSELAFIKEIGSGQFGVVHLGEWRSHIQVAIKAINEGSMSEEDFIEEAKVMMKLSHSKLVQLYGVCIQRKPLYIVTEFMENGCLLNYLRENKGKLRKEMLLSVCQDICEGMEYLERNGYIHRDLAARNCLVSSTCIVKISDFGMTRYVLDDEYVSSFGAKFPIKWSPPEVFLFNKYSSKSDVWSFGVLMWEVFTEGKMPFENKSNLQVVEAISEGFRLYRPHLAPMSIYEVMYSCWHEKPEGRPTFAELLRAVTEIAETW

[19] = molecular target: IRAK4 (human) (UniProt Q9NWZ3)
[20] = molecular target: EGFR (human) (UniProt P00533)
[21] = molecular target: TYRO3 (human) (UniProt Q06418)
[22] = molecular target: TBK1 (human) (UniProt Q9UHD2)
Sequence of TBK1 (human) (Q9UHD2 whole entry, looked up): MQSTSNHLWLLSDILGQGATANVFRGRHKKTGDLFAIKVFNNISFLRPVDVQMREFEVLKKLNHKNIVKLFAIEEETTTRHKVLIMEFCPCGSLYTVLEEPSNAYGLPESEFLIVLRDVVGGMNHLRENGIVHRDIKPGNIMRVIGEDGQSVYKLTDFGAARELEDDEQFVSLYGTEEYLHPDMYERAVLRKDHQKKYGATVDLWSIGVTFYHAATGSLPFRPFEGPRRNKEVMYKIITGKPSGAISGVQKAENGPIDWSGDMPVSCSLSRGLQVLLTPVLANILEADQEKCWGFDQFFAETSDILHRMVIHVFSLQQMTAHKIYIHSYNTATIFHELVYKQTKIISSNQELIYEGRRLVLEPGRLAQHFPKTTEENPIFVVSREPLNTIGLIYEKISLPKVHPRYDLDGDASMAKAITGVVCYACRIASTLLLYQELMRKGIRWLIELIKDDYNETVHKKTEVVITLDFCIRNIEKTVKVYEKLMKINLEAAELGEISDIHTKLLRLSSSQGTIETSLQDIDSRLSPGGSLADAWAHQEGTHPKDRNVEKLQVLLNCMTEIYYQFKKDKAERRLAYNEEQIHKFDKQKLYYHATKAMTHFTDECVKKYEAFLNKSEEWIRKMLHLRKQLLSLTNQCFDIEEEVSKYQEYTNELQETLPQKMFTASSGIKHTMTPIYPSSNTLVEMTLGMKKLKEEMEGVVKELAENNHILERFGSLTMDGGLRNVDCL

[23] = molecular target: TYK2 JH1 catalytic (human) (UniProt P29597)
[24] = molecular target: CAMK1G (human) (UniProt Q96NX5)
[25] = molecular target: MAP4K1 (human) (UniProt Q92918)
[26] = molecular target: ZAP70 (human) (UniProt P43403)
[27] = molecular target: CAMK2A (human) (UniProt Q9UQM7)
[28] = molecular target: SIK2 (human) (UniProt Q9H0K1)
Sequence of SIK2 (human) (Q9H0K1 whole entry, looked up): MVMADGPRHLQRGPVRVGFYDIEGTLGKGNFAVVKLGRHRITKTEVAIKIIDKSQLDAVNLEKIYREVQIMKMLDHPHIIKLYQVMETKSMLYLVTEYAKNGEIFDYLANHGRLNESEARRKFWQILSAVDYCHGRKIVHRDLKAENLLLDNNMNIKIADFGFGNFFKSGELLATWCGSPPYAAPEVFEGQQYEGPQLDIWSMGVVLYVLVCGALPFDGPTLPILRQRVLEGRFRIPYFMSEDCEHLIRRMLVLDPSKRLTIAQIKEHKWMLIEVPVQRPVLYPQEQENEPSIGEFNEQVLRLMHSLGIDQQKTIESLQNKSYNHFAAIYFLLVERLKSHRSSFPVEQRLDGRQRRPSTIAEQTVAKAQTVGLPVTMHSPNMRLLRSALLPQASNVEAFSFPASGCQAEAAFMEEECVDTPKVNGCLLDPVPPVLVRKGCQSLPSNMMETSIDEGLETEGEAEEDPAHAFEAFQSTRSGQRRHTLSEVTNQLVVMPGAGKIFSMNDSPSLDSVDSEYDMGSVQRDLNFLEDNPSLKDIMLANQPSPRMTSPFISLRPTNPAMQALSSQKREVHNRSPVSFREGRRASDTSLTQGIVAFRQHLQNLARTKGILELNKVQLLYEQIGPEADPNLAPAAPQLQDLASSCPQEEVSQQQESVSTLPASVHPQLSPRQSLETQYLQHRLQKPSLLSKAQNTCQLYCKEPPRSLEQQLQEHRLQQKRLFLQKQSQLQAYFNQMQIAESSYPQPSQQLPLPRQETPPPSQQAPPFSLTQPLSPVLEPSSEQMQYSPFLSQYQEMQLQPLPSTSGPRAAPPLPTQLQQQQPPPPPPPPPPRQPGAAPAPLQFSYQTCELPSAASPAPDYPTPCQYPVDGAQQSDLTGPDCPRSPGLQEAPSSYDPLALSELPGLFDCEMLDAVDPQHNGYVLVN

[29] = molecular target: JAK1 JH1 catalytic (human) (UniProt P23458)
[30] = molecular target: DCLK1 (human) (UniProt O15075)
[31] = molecular target: CDK18 (human) (UniProt Q07002)
[32] = molecular target: RIOK3 (human) (UniProt O14730)
Sequence of RIOK3 (human) (O14730 whole entry, looked up): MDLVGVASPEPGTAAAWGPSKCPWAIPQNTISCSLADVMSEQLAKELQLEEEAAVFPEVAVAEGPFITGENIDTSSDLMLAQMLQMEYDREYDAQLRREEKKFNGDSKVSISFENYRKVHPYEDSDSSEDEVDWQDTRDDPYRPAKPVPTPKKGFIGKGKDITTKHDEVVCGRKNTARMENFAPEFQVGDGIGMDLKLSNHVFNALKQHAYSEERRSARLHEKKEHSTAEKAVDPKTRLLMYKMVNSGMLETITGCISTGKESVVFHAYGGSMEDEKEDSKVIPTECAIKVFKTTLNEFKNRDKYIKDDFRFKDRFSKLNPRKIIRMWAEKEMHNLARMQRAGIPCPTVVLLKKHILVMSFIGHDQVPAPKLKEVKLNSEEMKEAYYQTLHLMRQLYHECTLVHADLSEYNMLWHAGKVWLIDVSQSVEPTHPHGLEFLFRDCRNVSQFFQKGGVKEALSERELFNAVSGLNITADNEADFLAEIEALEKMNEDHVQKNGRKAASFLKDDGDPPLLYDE

[33] = molecular target: MAP4K3 (human) (UniProt Q8IVH8)
Sequence of MAP4K3 (human) (Q8IVH8 whole entry, looked up): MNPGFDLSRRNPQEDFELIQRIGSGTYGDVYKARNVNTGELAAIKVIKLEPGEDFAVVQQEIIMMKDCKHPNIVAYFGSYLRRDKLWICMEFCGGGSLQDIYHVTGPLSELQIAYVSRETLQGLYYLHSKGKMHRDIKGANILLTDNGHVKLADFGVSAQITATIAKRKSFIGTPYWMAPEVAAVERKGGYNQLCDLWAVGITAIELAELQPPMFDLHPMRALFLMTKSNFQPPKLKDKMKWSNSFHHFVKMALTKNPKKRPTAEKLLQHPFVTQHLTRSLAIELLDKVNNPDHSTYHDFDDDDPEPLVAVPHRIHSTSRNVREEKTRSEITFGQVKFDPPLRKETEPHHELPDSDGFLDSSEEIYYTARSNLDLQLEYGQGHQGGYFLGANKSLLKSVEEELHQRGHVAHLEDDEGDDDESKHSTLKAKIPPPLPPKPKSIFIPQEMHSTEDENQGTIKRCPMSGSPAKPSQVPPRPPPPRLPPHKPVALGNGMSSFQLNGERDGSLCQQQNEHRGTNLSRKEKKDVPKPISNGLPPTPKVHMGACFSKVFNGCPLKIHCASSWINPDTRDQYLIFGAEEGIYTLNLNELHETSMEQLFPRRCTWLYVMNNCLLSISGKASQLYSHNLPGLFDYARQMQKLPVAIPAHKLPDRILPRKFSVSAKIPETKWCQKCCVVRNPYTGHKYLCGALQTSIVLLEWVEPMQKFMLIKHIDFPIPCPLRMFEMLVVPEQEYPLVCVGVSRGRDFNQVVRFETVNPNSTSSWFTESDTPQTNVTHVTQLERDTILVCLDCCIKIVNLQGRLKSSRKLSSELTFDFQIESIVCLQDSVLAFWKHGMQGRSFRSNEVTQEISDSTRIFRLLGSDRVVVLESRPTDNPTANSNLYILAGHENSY

[34] = molecular target: TRPM6 (human) (UniProt Q9BX84)
[35] = molecular target: MAP2K2 (human) (UniProt P36507)
[36] = molecular target: AURKB (human) (UniProt Q96GD4)
[37] = molecular target: ADCK4 (human) (UniProt Q96D53)
[38] = molecular target: MAPK15 (human) (UniProt Q8TD08)
Sequence of MAPK15 (human) (Q8TD08 whole entry, looked up): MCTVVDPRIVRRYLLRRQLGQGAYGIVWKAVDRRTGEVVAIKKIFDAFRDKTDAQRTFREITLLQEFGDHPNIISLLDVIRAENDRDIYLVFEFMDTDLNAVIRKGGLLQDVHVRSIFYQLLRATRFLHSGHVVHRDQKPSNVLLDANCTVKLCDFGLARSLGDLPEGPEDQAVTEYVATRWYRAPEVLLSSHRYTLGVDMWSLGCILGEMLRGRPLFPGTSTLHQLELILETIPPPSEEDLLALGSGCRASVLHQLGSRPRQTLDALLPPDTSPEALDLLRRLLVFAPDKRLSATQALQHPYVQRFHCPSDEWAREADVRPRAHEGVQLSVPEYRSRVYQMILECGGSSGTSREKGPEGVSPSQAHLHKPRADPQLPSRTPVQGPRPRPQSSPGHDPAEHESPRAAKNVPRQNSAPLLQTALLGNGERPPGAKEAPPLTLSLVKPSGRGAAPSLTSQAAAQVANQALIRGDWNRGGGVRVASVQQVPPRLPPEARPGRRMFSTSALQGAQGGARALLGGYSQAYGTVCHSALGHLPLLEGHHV

[39] = test system: EGFR (human), P00533 [T790M/L858R]
[40] = molecular target: ACVR2A (human) (UniProt P27037)

Sequence of SGK3 (human) (Q96BR1 whole entry, looked up): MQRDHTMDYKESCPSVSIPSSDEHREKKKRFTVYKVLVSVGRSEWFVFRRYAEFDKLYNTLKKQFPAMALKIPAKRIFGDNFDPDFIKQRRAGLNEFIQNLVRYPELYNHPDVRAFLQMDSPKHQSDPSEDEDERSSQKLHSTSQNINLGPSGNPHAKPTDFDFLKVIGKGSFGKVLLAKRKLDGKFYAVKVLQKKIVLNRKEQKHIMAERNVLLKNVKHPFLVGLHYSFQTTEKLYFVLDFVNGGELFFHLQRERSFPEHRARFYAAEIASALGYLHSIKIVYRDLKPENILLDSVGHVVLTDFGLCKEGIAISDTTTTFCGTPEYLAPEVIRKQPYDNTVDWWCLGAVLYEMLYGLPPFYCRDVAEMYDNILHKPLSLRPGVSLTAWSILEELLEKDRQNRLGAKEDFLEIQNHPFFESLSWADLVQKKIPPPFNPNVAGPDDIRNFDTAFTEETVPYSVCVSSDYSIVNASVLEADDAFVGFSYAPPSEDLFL

SMILES: O=C1NC(=O)/C(=C/c2ccc3nccc(-c4ccncc4)c3c2)S1
- kinase still bound, per cent of control [1]: 57%
- kinase still bound, per cent of control [2]: 66% and 84%
- kinase still bound, per cent of control [3]: 25%
- kinase still bound, per cent of control [4]: 66%
- kinase still bound, per cent of control [5]: 53%
- kinase still bound, per cent of control [6]: 77%
- kinase still bound, per cent of control [7]: 1.2%
- kinase still bound, per cent of control [8]: 7.1%
- kinase still bound, per cent of control [9]: 40%
- kinase still bound, per cent of control [10]: 19%
- kinase still bound, per cent of control [11]: 0.1%
- kinase still bound, per cent of control [12]: 0.55%
- kinase still bound, per cent of control [13]: 82%
- kinase still bound, per cent of control [14]: 100%
- kinase still bound, per cent of control [15]: 56%
- kinase still bound, per cent of control [16]: 20%
- kinase still bound, per cent of control [17]: 95%
- kinase still bound, per cent of control [18]: 79%
- kinase still bound, per cent of control [19]: 47%
- kinase still bound, per cent of control [20]: 58%
- kinase still bound, per cent of control [21]: 100%
- kinase still bound, per cent of control [22]: 29%
- kinase still bound, per cent of control [23]: 38%
- kinase still bound, per cent of control [24]: 32%
- kinase still bound, per cent of control [25]: 26%
- kinase still bound, per cent of control [26]: 93%
- kinase still bound, per cent of control [27]: 4.8%
- kinase still bound, per cent of control [28]: 100%
- kinase still bound, per cent of control [29]: 95%
- kinase still bound, per cent of control [30]: 77%
- kinase still bound, per cent of control [31]: 56%
- kinase still bound, per cent of control [32]: 1.4%
- kinase still bound, per cent of control [33]: 67%
- kinase still bound, per cent of control [34]: 97%
- kinase still bound, per cent of control [35]: 4.4%
- kinase still bound, per cent of control [36]: 39%
- kinase still bound, per cent of control [37]: 35%
- kinase still bound, per cent of control [38]: 0.05%
- kinase still bound, per cent of control [39]: 82%
- kinase still bound, per cent of control [40]: 83%
